Reference: patent publication US20040131686A1, “Composition and method for treatment of bacterial vaginal infections” (priority 2003, published 2004)
Where a name gives a salt, the structure may show the parent alone.

Tests used:
E. coli (ATCC #11229) = test: Zone of inhibition on agar plate inoculated with E. coli; assay type: cell-based
Procedure: Antibacterial activity was evaluated by measuring the diameter of the zone of inhibition (i.e., a clear zone with no bacterial colonies present, measured in millimeters) around the deposited gel. A commercially available vaginal cream formulation of benzydamine hydrochloride, TANTUM ROSA® cream, available from […] Pharmaceuticals, Rome, Italy was also evaluated, for comparison. According to the manufacturer's product literature TANTUM ROSA® cream contains about 0.5% benzydamine hydrochloride in a cream base containing propylene glycol, saturated triglycerides, ceteth 20, hydroxyethyl cellulose, sodium citrate dihydrate, citric acid monohydrate, benzoic acid, and purified water. In addition, a simple aqueous solution containing 0.5% by weight of benzydamine hydrochloride in deionized water was tested as a positive control. All materials were tested in triplicate.

[1] = test system: Staphylococcus aureus (ATCC #6538); test: Zone of inhibition on agar plate inoculated with Staphylococcus aureus; assay type: cell-based
Procedure: About 1 grams of each gelled composition was deposited on an agar plate that was previously inoculated with E. coli (ATCC #11229), a Gram-negative bacterium, and the plates were incubated for about 20 to about 28 hours at a temperature of about 35 to about 39° C. Antibacterial activity was evaluated by measuring the diameter of the zone of inhibition (i.e., a clear zone with no bacterial colonies present, measured in millimeters) around the deposited gel.
Similar plates were prepared wherein the inoculant was Staphylococcus aureus (ATCC #6538), a Gram-positive bacterium.
A commercially available vaginal cream formulation of benzydamine hydrochloride, TANTUM ROSA® cream, available from Angelini Pharmaceuticals, Rome, Italy was also evaluated, for comparison. According to the manufacturer's product literature TANTUM ROSA® cream contains about 0.5% benzydamine hydrochloride in a cream base containing propylene glycol, saturated triglycerides, ceteth 20, hydroxyethyl cellulose, sodium citrate dihydrate, citric acid monohydrate, benzoic acid, and purified water. In addition, a simple aqueous solution containing 0.5% by weight of benzydamine hydrochloride in deionized water was tested as a positive control. All materials were tested in triplicate.

[2] = about 1 gram of composition on inoculated agar plate, about 20 to 28 hours, about 35 to 39° C., triplicate

SMILES: CN(C)CCCOc1nn(Cc2ccccc2)c2ccccc12 [B-HCl, Benzydamine hydrochloride]
- E. coli clear zone (diameter of zone of inhibition) (E. coli (ATCC #11229); [2]): 12 mm
- Antibacterial activity against Gram-negative bacteria (E. coli), in words (E. coli (ATCC #11229); inhibition test on agar plate): effective
- Staphylococcus clear zone (diameter of zone of inhibition) [1, 2]: 14 mm
- Antibacterial activity against Gram-positive bacteria (Staphylococcus aureus), in words ([1]; inhibition test on agar plate): effective
